# Experimental data as given in patent US20100292255A1, “Therapeutic Compounds and Their Use in Treating Diseases and Disorders” (Myriad Pharmaceuticals, Inc., priority 2007, published 2010).
# Molecular target: T1, purified human Hsp90
# T1 construct: purified human Hsp90 (Stressgen, SPP-770)
# Test: Hsp90 binding assay: displacement of BODIPY-labeled geldanamycin measured by fluorescence polarization
# Settings: BODIPY-GM 10 nM, Hsp90 30 nM, overnight at room temperature; read-out: GM displacement from purified Hsp90 measured by FP IC 50
# Protocol: Binding of the Example Compounds to purified Hsp90 was assayed by measuring the displacement of BODIPY-labeled geldanamycin (BODIPY-GM) from purified human Hsp90, using a fluorescence polarization assay adapted from Kim et al. (J. Biomolec. Screening, 9(5):375-381 (2004)). Compound dilutions (in 100% DMSO) were added to black-bottom 96-well plates (Greiner Bio-One, Monroe, N.C.) in 2% DMSO final, and equal volumes of BODIPY-GM (10 nM final) and purified human Hsp90 (Stressgen, SPP-770; 30 nM final) (Assay Designs, Ann Arbor, Mich.) in assay buffer (20 mM HEPES-KOH pH 7.3, 50 mM KCl, 5 mM MgCl2, 20 mM Na2MoO4, 0.01% NP-40, 0.1 mg/mL bovine gamma globulin [P2045; Invitrogen, Carlsbad, Calif.], 2 mM DTT) were added sequentially to yield a final volume of 50 microliters. Plates were incubated overnight at room temperature. Parallel and perpendicular fluorescence measurements were read (Analyst AD plate reader; LJL BioSystems, Middletown, Conn.) with excitation/emission wavelengths of 485/530 nm. Background fluorescence (buffer only) was subtracted, and fluorescence polarization (FP) values, expressed in mP units, were calculated from parallel and perpendicular fluorescence readings as follows:
# FP=(parallel−perpendicular)/(parallel+perpendicular)*1000.
# Percent inhibition was calculated by normalizing the FP values to those obtained in parallel reactions containing DMSO and subtracting these normalized values from 100%. Intrinsic compound fluorescence was independently monitored, and FP data points confounded by compound fluorescence were excluded from the analysis.
row,Structure (SMILES),IC50 [nM]
1,"Nc1ncnc2c1nc(Sc1cc3ccoc3cc1Br)n2CCC1CCN(C=O)CC1 [Example Compound 176, 4-(2-{6-Amino-8-[(6-bromo-1-benzofuran-5-yl)thio]-9H-purin-9-yl}ethyl)piperidine-1-carbaldehyde]",900
2,"Nc1ncnc2c1nc(Sc1cc(Br)c3c(c1)CCO3)n2CCC1CCN(C=O)CC1 [Example Compound 179, 4-(2-{6-Amino-8-[(7-bromo-2,3-dihydro-1-benzofuran-5-yl)thio]-9H-purin-9-yl}ethyl)piperidine-1-carbaldehyde]",4000
3,"Nc1ncnc2c1nc(Sc1cc3c(cc1Br)OCC3)n2CCC1CCN(C=O)CC1 [Example Compound 180, 4-(2-{6-Amino-8-[(6-bromo-2,3-dihydro-1-benzofuran-5-yl)thio]-9H-purin-9-yl}ethyl)piperidine-1-carbaldehyde]",400
4,"CC1(C)CCc2cc(Br)c(Sc3nc4c(N)ncnc4n3CCC3CCN(C=O)CC3)cc21 [Example Compound 181, 4-(2-{6-Amino-8-[(6-bromo-3,3-dimethyl-2,3-dihydro-1H-inden-5-yl)thio]-9H-purin-9-yl}ethyl)piperidine-1-carbaldehyde]",1500
5,"Nc1ncnc2c1nc(Sc1cc(Br)c3occc3c1)n2CCC1CCN(C=O)CC1 [Example Compound 182, 4-(2-{6-Amino-8-[(7-bromo-1-benzofuran-5-yl)thio]-9H-purin-9-yl}ethyl)piperidine-1-carbaldehyde]",> 5000
6,"Nc1ncnc2c1nc(Sc1cc3c(cc1F)OCCO3)n2CCC1CCN(C=O)CC1 [Example Compound 183, 4-(2-{6-Amino-8-[(7-fluoro-2,3-dihydro-1,4-benzodioxin-6-yl)thio]-9H-purin-9-yl}ethyl)piperidine-1-carbaldehyde]",2900
7,"CN1CCOc2cc(Sc3nc4c(N)ncnc4n3CCC3CCN(C=O)CC3)c(Cl)cc21 [Example Compound 185, 4-(2-{6-Amino-8-[(6-chloro-4-methyl-3,4-dihydro-2H-1,4-benzoxazin-7-yl)thio]-9H-purin-9-yl}ethyl)piperidine-1-carbaldehyde]",400

# Now those with a lower IC50, led by results:
row,IC50 [nM],Structure (SMILES)
1,35,"C[C@H](O)C(=O)N1CCC(CCn2c(Sc3cc4c(cc3Br)CCO4)nc3c(N)ncnc32)CC1 [Example Compound 173, (2S)-1-[4-(2-{6-Amino-8-[(5-bromo-2,3-dihydro-1-benzofuran-6-yl)thio]-9H-purin-9-yl}ethyl)piperidin-1-yl]-1-oxopropan-2-ol]"
2,150,"COC(=O)c1cc2c(cc1Sc1nc3c(N)ncnc3n1CCC1CCNCC1)OCO2 [Example Compound 174, Methyl 6-{[6-amino-9-(2-piperidin-4-ylethyl)-9H-purin-8-yl]thio}-1,3-benzodioxole-5-carboxylate]"
3,70,"CCOC(=O)c1cc2c(cc1Sc1nc3c(N)ncnc3n1CCC1CCNCC1)OCO2 [Example Compound 175, ethyl 6-{[6-amino-9-(2-piperidin-4-ylethyl)-9H-purin-8-yl]thio}-1,3-benzodioxole-5-carboxylate]"
4,305,"Nc1ncnc2c1nc(Sc1cc3occc3cc1Cl)n2CCC1CCN(C=O)CC1 [Example Compound 178, 4-(2-{6-Amino-8-[(5-chloro-1-benzofuran-6-yl)thio]-9H-purin-9-yl}ethyl)piperidine-1-carbaldehyde]"
5,310,"CN1CCOc2cc(Br)c(Sc3nc4c(N)ncnc4n3CCC3CCN(C=O)CC3)cc21 [Example Compound 184, 4-(2-{6-Amino-8-[(7-bromo-4-methyl-3,4-dihydro-2H-1,4-benzoxazin-6-yl)thio]-9H-purin-9-yl}ethyl)piperidine-1-carbaldehyde]"
6,65,"CN1CCOc2cc(Sc3nc4c(N)ncnc4n3CCC3CCN(C=O)CC3)c(Br)cc21 [Example Compound 186, 4-(2-{6-Amino-8-[(6-bromo-4-methyl-3,4-dihydro-2H-1,4-benzoxazin-7-yl)thio]-9H-purin-9-yl}ethyl)piperidine-1-carbaldehyde]"
